In patent US11739074B2, “Ras inhibitors” (Revolution Medicines, Inc., priority 2019, dated 2023):
Read-outs that look alike come from different tables or passages of the source.

Assays:
KRAS G12V = KRAS G12V (Homo sapiens, UniProt P01116+P62937, G12V); test: Ras-Raf disruption/FRET/MOA assay, KRAS G12V; format: biochemical; settings: disruption of BRAF RBD binding, with Cyclophilin A; read-out: KRAS G12V FRET IC50
Text: Disruption of B-Raf Ras-Binding Domain (BRAF^RBD) Interaction with K-Ras by Compounds of the Invention (Also Called a FRET Assay or an MOA Assay)
Note—The following protocol describes a procedure for monitoring disruption of K-Ras G12C (GMP-PNP) binding to BRAF^RBD by a compound of the invention. This protocol may also be executed substituting other Ras proteins or nucleotides, such as K-Ras G12D and K-Ras G13D.
The purpose of this biochemical assay was to measure the ability of test compounds to facilitate ternary complex formation between a nucleotide-loaded K-Ras isoform and Cyclophilin A; the resulting ternary complex disrupts binding to a BRAF^RBD construct, inhibiting K-Ras signaling through a RAF effector.
In assay buffer containing 25 mM HEPES pH 7.3, 0.002% Tween20, 0.1% BSA, 100 mM NaCl and 5 mM MgCl2, tagless Cyclophilin A, His6-K-Ras-GMPPNP, and GST-BRAF^RBD were combined in a 384-well assay plate at final concentrations of 25 μM, 12.5 nM, and 50 nM, respectively. Compound was present in plate wells as a 10-point 3-fold dilution series starting at a final concentration of 30 μM. After incubation at 25° C. for 3 hours, a mixture of anti-His Eu-W1024 and anti-GST allophycocyanin was then added to assay sample wells at final concentrations of 10 nM and 50 nM, respectively, and the reaction incubated for an additional 1.5 hours. […] Compounds that facilitate disruption of a K-Ras:RAF complex were identified as those eliciting a decrease in the TR-FRET ratio relative to DMSO control wells.

NCI-H358 (K-Ras G12C) = test: CellTiter-Glo cell viability assay, H358; format: cell-based; settings: Homo sapiens, NCI-H358, 120 h
Method in brief: (§1)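 Test compounds were dispensed directly onto seeded cells, and on day 5 plates were brought to room temperature for about 30 minutes before CellTiter-Glo luminescence was read. Signals were expressed as percent of the mean DMSO control and fitted with a four-parameter logistic model.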

AsPC-1 (K-Ras G12D) [1] = test: CellTiter-Glo cell viability assay, AsPC-1; format: cell-based; settings: Homo sapiens, ASPC1, 120 h
Method in brief: as §1

AsPC-1 (K-Ras G12D) [2] = test: Potency assay: pERK in AsPC-1 cells; format: cell-based; settings: Homo sapiens
[3] = read-out: H358 Cell Viability IC50
[4] = NCI-H358, K-Ras G12C, 5-day treatment, read-out: H358 Cell Viability IC50
[5] = AsPC-1, K-Ras G12D, 5-day treatment, read-out: AsPC-1 Cell Viability IC50
[6] = ASPC1, AsPC-1 cells, K-Ras G12D, read-out: pERK EC50 (AsPC-1 KRAS G12D)
[7] = ASPC1, read-out: pERK EC50 (AsPC-1 KRAS G12D)
[8] = read-out: AsPC-1 Cell Viability IC50, AsPC-1, K-Ras G12D, 5-day treatment
[9] = read-out: H358 Cell Viability IC50, NCI-H358, K-Ras G12C, 5-day treatment

Chain of KRAS G12V (P01116 1-169 isoform P01116-2 G12V limits assumed): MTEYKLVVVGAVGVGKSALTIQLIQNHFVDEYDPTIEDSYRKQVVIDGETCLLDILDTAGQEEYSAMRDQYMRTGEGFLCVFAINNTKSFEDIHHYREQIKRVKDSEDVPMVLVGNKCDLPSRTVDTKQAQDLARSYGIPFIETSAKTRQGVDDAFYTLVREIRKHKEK
Chain of KRAS G12V (P62937 whole entry, the tested form may be a part): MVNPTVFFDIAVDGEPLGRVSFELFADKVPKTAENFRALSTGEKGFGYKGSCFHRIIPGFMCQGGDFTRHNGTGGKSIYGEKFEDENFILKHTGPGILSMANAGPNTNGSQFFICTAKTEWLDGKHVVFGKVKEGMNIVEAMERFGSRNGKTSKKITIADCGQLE

Row | Structure (SMILES) | IC50 (NCI-H358 (K-Ras G12C); [4]) | IC50 (AsPC-1 (K-Ras G12D) [1]; [5]) | EC50 (AsPC-1 (K-Ras G12D) [2]; [6]) | EC50 (AsPC-1 (K-Ras G12D) [2]; [7]) | IC50 (AsPC-1 (K-Ras G12D) [1]; [8]) | IC50 (NCI-H358 (K-Ras G12C); [9]) | other results
1 | CCn1c(-c2cnccc2COC)c2c3cc(ccc31)-c1cc(O)cc(c1)C[C@H](NC(=O)[C@@H](CCNC(=O)NCCCl)C(C)C)C(=O)N1CCC[C@H](N1)C(=O)OCC(C)(C)C2 [Compound 26] |  |  |  |  |  |  | IC50 (KRAS G12V): > 10000 nM; IC50 (NCI-H358 (K-Ras G12C); [3]): 1000 to 10000 nM
2 | CCn1c(-c2cccnc2COC)c2c3cc(ccc31)-c1cc(O)cc(c1)C[C@H](NC(=O)[C@H](C(C)C)N(C)C(=O)CCNC1=NCCO1)C(=O)N1CCC[C@H](N1)C(=O)OCC(C)(C)C2 [Compound 27] | > 10000 nM |  |  |  |  |  | IC50 (KRAS G12V): > 10000 nM
3 | CCn1c(-c2cnccc2COC)c2c3cc(ccc31)-c1cccc(c1)C[C@H](NC(=O)[C@H](C(C)C)N1CC[C@H](CN=C=Nc3ccc(OC)cc3)C1)C(=O)N1CCC[C@H](N1)C(=O)OCC(C)(C)C2 [Compound 81] |  | 1000 to 10000 nM |  |  |  |  | IC50 (KRAS G12V): > 10000 nM
4 | CCn1c(-c2cccnc2[C@H](C)OC)c2c3cc(ccc31)-c1cc(O)cc(c1)C[C@H](NC(=O)[C@H](C1CCCC1)N(C)C(=O)[C@H](C)N(C)C(=O)[C@@H]1N[C@@H]1C1CC1)C(=O)N1CCC[C@H](N1)C(=O)OCC(C)(C)C2 [Compound 328] | < 10 nM | 100 to 1000 nM | < 5000 nM |  |  |  | 
5 | CCn1c(-c2cnccc2COC)c2c3cc(ccc31)-c1cc(O)cc(c1)C[C@H](NC(=O)[C@H](C(C)C)N(C)C(=O)[C@H]1CCN(C(=O)[C@H]3CN3)C1)C(=O)N1CCC[C@H](N1)C(=O)OCC(C)(C)C2 [Example 1, (3S)-1-((R)-aziridine-2-carbonyl)-N-((2S)-1-(((6^3S,4S)-1^1-ethyl-2^5-hydroxy-1^2-(4-(methoxymethyl)pyridin-3-yl)-10,10-dimethyl-5,7-dioxo-6^1,6^2,6^3,6^4,6^5,6^6-hexahydro-1^1H-8-oxa-1(5,3)-indola-6(1,3)-pyridazina-2(1,3)-benzenacycloundecaphane-4-yl)amino)-3-methyl-1-oxobutan-2-yl)-N-methylpyrrolidine-3-carboxamide] | < 10 nM | 1000 to 10000 nM | < 5000 nM |  |  |  | 
6 | CCn1c(-c2cnccc2COC)c2c3cc(ccc31)-c1cc(O)cc(c1)C[C@H](NC(=O)[C@H](C(C)C)N(C)C(=O)CN(C)C(=O)[C@H]1[C@@H](C(=O)OC)N1[S@+]([O-])C(C)(C)C)C(=O)N1CCC[C@H](N1)C(=O)OCC(C)(C)C2 (stereo partly drawn) [Example 48, methyl (2S,3R)-1-((R)-tert-butylsulfinyl)-3-((2-(((2S)-1-(((6^3S,4S)-1^1-ethyl-2^5-hydroxy-1^2-(4-(methoxymethyl)pyridin-3-yl)-10,10-dimethyl-5,7-dioxo-6^1,6^2,6^3,6^4,6^5,6^6-hexahydro-1^1H-8-oxa-1(5,3)-indola-6(1,3)-pyridazina-2(1,3)-benzenacycloundecaphane-4-yl)amino)-3-methyl-1-oxobutan-2-yl)(methyl)amino)-2-oxoethyl)(methyl)carbamoyl)aziridine-2-carboxylate] |  |  |  | < 5000 nM |  |  | IC50 (AsPC-1 (K-Ras G12D) [1]; read-out: AsPC-1 Cell Viability IC50): 1000 to 10000 nM; IC50 (NCI-H358 (K-Ras G12C); [3]): 100 to 1000 nM
7 | CCn1c(-c2cnccc2COC)c2c3cc(ccc31)-c1cc(O)cc(c1)C[C@H](NC(=O)[C@H](C(C)C)N(C)C(=O)CN(C)C(=O)[C@@H]1N[C@@H]1C(=O)OC)C(=O)N1CCC[C@H](N1)C(=O)OCC(C)(C)C2 [Example 49, methyl (2S,3R)-3-((2-(((2S)-1-(((6^3S,4S)-1^1-ethyl-2^5-hydroxy-1^2-(4-(methoxymethyl)pyridin-3-yl)-10,10-dimethyl-5,7-dioxo-6^1,6^2,6^3,6^4,6^5,6^6-hexahydro-1^1H-8-oxa-1(5,3)-indola-6(1,3)-pyridazina-2(1,3)-benzenacycloundecaphane-4-yl)amino)-3-methyl-1-oxobutan-2-yl)(methyl)amino)-2-oxoethyl)(methyl)carbamoyl)aziridine-2-carboxylate] |  |  |  | < 5000 nM | 1000 to 10000 nM | 1000 to 10000 nM | 
8 | CCn1c(-c2cccnc2[C@H](C)OC)c2c3cc(ccc31)-c1cc(O)cc(c1)C[C@H](NC(=O)[C@H](C1CCCC1)N(C)C(=O)CN(C)C(=O)[C@H]1CN1)C(=O)N1CCC[C@H](N1)C(=O)OCC(C)(C)C2 [Example 95, (2R)—N-(2-(((1S)-1-cyclopentyl-2-(((6^3S,4S)-1^1-ethyl-2^5-hydroxy-1^2-(2-((S)-1-methoxyethyl)pyridin-3-yl)-10,10-dimethyl-5,7-dioxo-6^1,6^2,6^3,6^4,6^5,6^6-hexahydro-1^1H-8-oxa-1(5,3)-indola-6(1,3)-pyridazina-2(1,3)-benzenacycloundecaphane-4-yl)amino)-2-oxoethyl)(methyl)amino)-2-oxoethyl)-N-methylaziridine-2-carboxamide] |  |  |  | < 5000 nM | 10 to 100 nM | < 10 nM | 
9 | CCn1c(-c2cccnc2[C@H](C)OC)c2c3cc(ccc31)-c1cc(O)cc(c1)C[C@H](NC(=O)[C@H](C(C)C)N(C)C(=O)CN(C)C(=O)[C@@H]1N[C@@H]1C1CC1)C(=O)N1CCC[C@H](N1)C(=O)OCC(C)(C)C2 [Example 133, (2R,3R)-3-cyclopropyl-N-(2-(((2S)-1-(((6^3S,4S)-1^1-ethyl-2^5-hydroxy-1^2-(2-((S)-1-methoxyethyl)pyridin-3-yl)-10,10-dimethyl-5,7-dioxo-6^1,6^2,6^3,6^4,6^5,6^6-hexahydro-1^1H-8-oxa-1(5,3)-indola-6(1,3)-pyridazina-2(1,3)-benzenacycloundecaphane-4-yl)amino)-3-methyl-1-oxobutan-2-yl)(methyl)amino)-2-oxoethyl)-N-methylaziridine-2-carboxamide] |  |  |  | < 5000 nM | 10 to 100 nM | 10 to 100 nM | 
10 | CCn1c(-c2cccnc2[C@H](C)OC)c2c3cc(ccc31)-c1cc(O)cc(c1)C[C@H](NC(=O)[C@H](C1CCCC1)N1CC[C@]3(CCN(C(=O)[C@H]4CN4)C3)C1=O)C(=O)N1CCC[C@H](N1)C(=O)OCC(C)(C)C2 [Example 175, (2S)-2-((S)-7-((R)-aziridine-2-carbonyl)-1-oxo-2,7-diazaspiro[4.4]nonan-2-yl)-2-cyclopentyl-N-((6^3S,4S)-1^1-ethyl-2^5-hydroxy-1^2-(2-((S)-1-methoxyethyl)pyridin-3-yl)-10,10-dimethyl-5,7-dioxo-6^1,6^2,6^3,6^4,6^5,6^6-hexahydro-1^1H-8-oxa-1(5,3)-indola-6(1,3)-pyridazina-2(1,3)-benzenacycloundecaphane-4-yl)acetamide] | < 10 nM | 10 to 100 nM | < 5000 nM |  |  |  | 
11 | CCn1c(-c2cc(N3CCN(C)CC3)cnc2[C@H](C)OC)c2c3cc(ccc31)-c1cc(O)cc(c1)C[C@H](NC(=O)[C@H](C1CCCC1)N(C)C(=O)CN(C)C(=O)[C@H]1CN1)C(=O)N1CCC[C@H](N1)C(=O)OCC(C)(C)C2 [Example 209, (2R)—N-(2-(((1S)-1-cyclopentyl-2-(((6^3S,4S)-1^1-ethyl-2^5-hydroxy-1^2-(2-((S)-1-methoxyethyl)-5-(4-methylpiperazin-1-yl)pyridin-3-yl)-10,10-dimethyl-5,7-dioxo-6^1,6^2,6^3,6^4,6^5,6^6-hexahydro-1^1H-8-oxa-1(5,3)-indola-6(1,3)-pyridazina-2(1,3)-benzenacycloundecaphane-4-yl)amino)-2-oxoethyl)(methyl)amino)-2-oxoethyl)-N-methylaziridine-2-carboxamide] |  |  |  | < 5000 nM | < 10 nM | < 10 nM | 
12 | CCn1c(-c2cccnc2[C@H](C)OC)c2c3cc(ccc31)-c1cc(O)cc(c1)C[C@H](NC(=O)[C@H](C1CCCC1)N1CC[C@]3(CCN(C(=O)[C@@H]4N[C@@H]4C4CC4)C3)C1=O)C(=O)N1CCC[C@H](N1)C(=O)OCC(C)(C)C2 [Example 214, (2S)-2-cyclopentyl-2-((S)-7-((2R,3R)-3-cyclopropylaziridine-2-carbonyl)-1-oxo-2,7-diazaspiro[4.4]nonan-2-yl)-N-((6^3S,4S)-1^1-ethyl-2^5-hydroxy-1^2-(2-((S)-1-methoxyethyl)pyridin-3-yl)-10,10-dimethyl-5,7-dioxo-6^1,6^2,6^3,6^4,6^5,6^6-hexahydro-1^1H-8-oxa-1(5,3)-indola-6(1,3)-pyridazina-2(1,3)-benzenacycloundecaphane-4-yl)acetamide] | 10 to 100 nM | 10 to 100 nM | < 5000 nM |  |  |  | 
